# From patent US20260262643A1, “HERBICIDAL BENZOXAZINES” (FMC CORPORATION, priority 2022, published 2026)
# Experiments:
# [1] = test system: barnyardgrass; assay: Test C preemergence; format: in vivo, Echinochloa crusgalli
# Method in brief: (§1)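 Visual injury ratings on a 0–100 scale (100 = complete control) were made against untreated controls 10 days after treatment in the greenhouse. Compounds, formulated with surfactant in non-phytotoxic solvent, were sprayed on soil preemergence or onto one- to two-leaf plants 2–10 cm tall postemergence.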
# [2] = test system: blackgrass; assay: Test C preemergence; format: in vivo, Alopecurus myosuroides
# Method in brief: as §1
# [3] = test system: corn; assay: Test C preemergence; format: in vivo, Zea mays
# Method in brief: as §1
# [4] = test system: foxtail, giant; assay: Test C preemergence; format: in vivo, Setaria faberi
# Method in brief: as §1
# [5] = test system: kochia; assay: Test C preemergence; format: in vivo, Bassia scoparia
# Method in brief: as §1
# [6] = test system: oat, wild; assay: Test C preemergence; format: in vivo, Avena fatua
# Method in brief: as §1
# [7] = test system: pigweed, palmer; assay: Test C preemergence; format: in vivo, Amaranthus palmeri
# Method in brief: as §1
# [8] = test system: ragweed; assay: Test C preemergence; format: in vivo, Ambrosia artemisiifolia
# Method in brief: as §1
# [9] = test system: ryegrass, Italian; assay: Test C preemergence; format: in vivo, Lolium multiflorum
# Method in brief: as §1
# [10] = test system: soybean; assay: Test C preemergence; format: in vivo, Glycine max
# Method in brief: as §1
# [11] = test system: wheat; assay: Test C preemergence; format: in vivo, Triticum aestivum
# Method in brief: as §1
# [12] = test system: barnyardgrass; assay: Test C postemergence; format: in vivo, Echinochloa crusgalli; conditions: 10 days, 0 to 100 scale (0 no effect, 100 complete control)
# Method in brief: as §1
# [13] = test system: blackgrass; assay: Test C postemergence; format: in vivo, Alopecurus myosuroides; conditions: 10 days, 0 to 100 scale (0 no effect, 100 complete control)
# Method in brief: as §1
# [14] = test system: corn; assay: Test C postemergence; format: in vivo, Zea mays; conditions: 10 days, 0 to 100 scale (0 no effect, 100 complete control)
# Method in brief: as §1
# [15] = test system: foxtail, giant; assay: Test C postemergence; format: in vivo, Setaria faberi; conditions: 10 days, 0 to 100 scale (0 no effect, 100 complete control)
# Method in brief: as §1
# [16] = test system: kochia; assay: Test C postemergence; format: in vivo, Bassia scoparia; conditions: 10 days, 0 to 100 scale (0 no effect, 100 complete control)
# Method in brief: as §1
# [17] = test system: oat, wild; assay: Test C postemergence; format: in vivo, Avena fatua; conditions: 10 days, 0 to 100 scale (0 no effect, 100 complete control)
# Method in brief: as §1
# [18] = test system: pigweed, palmer; assay: Test C postemergence; format: in vivo, Amaranthus palmeri; conditions: 10 days, 0 to 100 scale (0 no effect, 100 complete control)
# Method in brief: as §1
# [19] = test system: ragweed; assay: Test C postemergence; format: in vivo, Ambrosia artemisiifolia; conditions: 10 days, 0 to 100 scale (0 no effect, 100 complete control)
# Method in brief: as §1
# [20] = test system: ryegrass, Italian; assay: Test C postemergence; format: in vivo, Lolium multiflorum; conditions: 10 days, 0 to 100 scale (0 no effect, 100 complete control)
# Method in brief: as §1
# [21] = test system: soybean; assay: Test C postemergence; format: in vivo, Glycine max; conditions: 10 days, 0 to 100 scale (0 no effect, 100 complete control)
# Method in brief: as §1
# [22] = test system: wheat; assay: Test C postemergence; format: in vivo, Triticum aestivum; conditions: 10 days, 0 to 100 scale (0 no effect, 100 complete control)
# Method in brief: as §1
# [23] = test system: galium; assay: Test C postemergence; format: in vivo, Galium aparine; conditions: 10 days, 0 to 100 scale (0 no effect, 100 complete control)
# Method in brief: as §1
# [24] = test system: horseweed; assay: Test C postemergence; format: in vivo, Erigeron canadensis; conditions: 10 days, 0 to 100 scale (0 no effect, 100 complete control)
# Method in brief: as §1
# [25] = test system: barnyardgrass; assay: Test D flooded paddy test; format: in vivo, Echinochloa crus-galli; conditions: 250 g ai/ha, applied to paddy water, visual rating after 13 to 14 days, scale 0 to 100 (0 no effect, 100 complete control)
# Method in brief: (§2)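 Seedlings reached the 2-leaf stage, then pots were flooded to 3 cm over the soil surface. Compound was applied into the water, depth was maintained, and plants stayed in the greenhouse 13 to 14 days before visual scoring (0–100) relative to controls.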
# [26] = test system: ducksalad; assay: Test D flooded paddy test; format: in vivo, Heteranthera limosa; conditions: 250 g ai/ha, applied to paddy water, visual rating after 13 to 14 days, scale 0 to 100 (0 no effect, 100 complete control)
# Method in brief: as §2
# [27] = test system: rice; assay: Test D flooded paddy test; format: in vivo, Oryza sativa; conditions: 250 g ai/ha, applied to paddy water, visual rating after 13 to 14 days, scale 0 to 100 (0 no effect, 100 complete control)
# Method in brief: as §2
# [28] = test system: sedge, umbrella; assay: Test D flooded paddy test; format: in vivo, Cyperus difformis; conditions: 250 g ai/ha, applied to paddy water, visual rating after 13 to 14 days, scale 0 to 100 (0 no effect, 100 complete control)
# Method in brief: as §2
# [29] = 500 g ai/ha, preemergence, 0 to 100 scale (0 no effect, 100 complete control)
# [30] = Preemergence, 125 g ai/ha, 0 to 100 scale, 0 no effect, 100 complete control
smiles,measurement,setting,value
CCc1ncn(-c2cccc(C(=O)N3CC(C(F)(F)F)Oc4c(Cl)cccc43)c2)n1 (stereo not shown) [Compound 345],Barnyardgrass plant response rating,[1]; [29],100
same,"Plant response rating, Barnyardgrass",[1]; [30],60
same,Blackgrass plant response rating,[2]; [29],90
same,"Plant response rating, Blackgrass",[2]; [30],80
same,Corn plant response rating,[3]; [29],30
same,"Plant response rating, Corn",[3]; [30],10
same,"Foxtail, Giant plant response rating",[4]; [29],100
same,"Plant response rating, Foxtail, Giant",[4]; [30],90
same,Kochia plant response rating,[5]; [29],100
same,"Plant response rating, Kochia",[5]; [30],50
same,"Oat, Wild plant response rating",[6]; [29],80
same,"Plant response rating, Oat, Wild",[6]; [30],10
same,"Pigweed, Palmer plant response rating",[7]; [29],100
same,"Plant response rating, Pigweed, Palmer",[7]; [30],100
same,Ragweed plant response rating,[8]; [29],0
same,"Plant response rating, Ragweed",[8]; [30],0
same,"Ryegrass, Italian plant response rating",[9]; [29],90
same,"Plant response rating, Ryegrass, Italian",[9]; [30],80
same,Soybean plant response rating,[10]; [29],100
same,"Plant response rating, Soybean",[10]; [30],30
same,Wheat plant response rating,[11]; [29],10
same,"Plant response rating, Wheat",[11]; [30],0
same,"Plant response rating, Barnyardgrass","[12]; 500 g ai/ha, postemergence",60
same,"Plant response rating, Barnyardgrass","[12]; Postemergence, 125 g ai/ha",30
same,"Plant response rating, Blackgrass","[13]; 500 g ai/ha, postemergence",90
same,"Plant response rating, Blackgrass","[13]; Postemergence, 125 g ai/ha",50
same,"Plant response rating, Corn","[14]; 500 g ai/ha, postemergence",80
same,"Plant response rating, Corn","[14]; Postemergence, 125 g ai/ha",30
same,"Plant response rating, Foxtail, Giant","[15]; 500 g ai/ha, postemergence",90
same,"Plant response rating, Foxtail, Giant","[15]; Postemergence, 125 g ai/ha",60
same,"Plant response rating, Kochia","[16]; 500 g ai/ha, postemergence",90
same,"Plant response rating, Kochia","[16]; Postemergence, 125 g ai/ha",80
same,"Plant response rating, Oat, Wild","[17]; 500 g ai/ha, postemergence",30
same,"Plant response rating, Oat, Wild","[17]; Postemergence, 125 g ai/ha",20
same,"Plant response rating, Pigweed, Palmer","[18]; 500 g ai/ha, postemergence",80
same,"Plant response rating, Pigweed, Palmer","[18]; Postemergence, 125 g ai/ha",60
same,"Plant response rating, Ragweed","[19]; 500 g ai/ha, postemergence",60
same,"Plant response rating, Ragweed","[19]; Postemergence, 125 g ai/ha",40
same,"Plant response rating, Ryegrass, Italian","[20]; 500 g ai/ha, postemergence",80
same,"Plant response rating, Ryegrass, Italian","[20]; Postemergence, 125 g ai/ha",60
same,"Plant response rating, Soybean","[21]; 500 g ai/ha, postemergence",100
same,"Plant response rating, Soybean","[21]; Postemergence, 125 g ai/ha",100
same,"Plant response rating, Wheat","[22]; 500 g ai/ha, postemergence",30
same,"Plant response rating, Wheat","[22]; Postemergence, 125 g ai/ha",20
same,"Plant response rating, Galium","[23]; 500 g ai/ha, postemergence",100
same,"Plant response rating, Galium","[23]; Postemergence, 125 g ai/ha",100
same,"Plant response rating, Horseweed","[24]; 500 g ai/ha, postemergence",30
same,"Plant response rating, Horseweed","[24]; Postemergence, 125 g ai/ha",0
same,"Plant response rating, Barnyardgrass (Flood)",[25],40
same,"Plant response rating, Ducksalad (Flood)",[26],65
same,"Plant response rating, Rice (Flood)",[27],10
same,"Plant response rating, Sedge, Umbrella (Flood)",[28],60
